For one data set, the system named is AP DNA. Put plainly: SSB activity assay, dose-response of AP site binding probes. Type of data set: biochemical. To be noted: 5 pmol AP DNA, FIG. 1. The procedure: FIG. 1 illustrates SSB activity assay is used to compare the dose-response of AP site binding probes in 5 pmol of AP DNA. Mean and standard deviation of triplicate samples are shown for each concentration.
The single strand break (SSB) assay was proposed as a quick, facile tool to screen AP site binding probes. Therefore, the assay was performed on novel AP site binding probes described above and the commercially available AP site binding probe, F422. […] The reduced response of F422 and DansylMX may be due in part to the compounds being fairly electron rich near the aminooxy binding moiety. This could lead to a Coulombic repulsion with the DNA phosphate backbone.
SSB activity assays were performed on a 40-mer duplex DNA synthesized by IDT with the sequence:
SSB Activity Assay Control Reactions

Data set [1] is described as follows: Fluorescence and absorbance properties of Cy7MX in various solvents (Example 1). The data set is classed as physicochemical. How it is done:
NMR spectra were recorded on a Varian Mercury 300 MHz, a Varian Inova 400, and a Varian Inova 600 MHz spectrometer at room temperature, except where otherwise noted. Chemical shifts for 1H NMR were reported as 6, parts per million, and referenced to CHCl3 at 7.26 ppm or TMS at 0 ppm. Chemical shifts for ^13C NMR were reported as 6 and referenced to the center line of the CDCl3 triplet at 77.0 ppm or CH2Cl2 pentet at 54.0 ppm. Low resolution mass spectra were recorded on a ThermoScientific LCQ Advantage or a Finnigan LCQ Deca mass spectrometer. Fluorescence data were collected on a Varian Cary Eclipse fluorescence spectrophotometer in a quartz cuvette with a 1 cm pathlength or on a Tecan Infinite M200 scanner. Absorbance data were collected on a Varian Cary 50 Bio UV-Visible Spectrophotometer in a quartz cuvette with a 1 cm path length.
Fluorescent quantum yields were determined by a comparative method to an indocyanine green (ICG) standard (Φ=0.132 in EtOH) with refractive index correction according to Equation 1:
[formula] • where Φ is the quantum yield; F is the integrated fluorescence intensity (area); A is the absorbance; n is the refractive index of the solvent (ethanol, 1.3611; acetonitrile, 1.3442; water, 1.333; and chloroform, 1.4459); and R is the reference sample, ICG in EtOH. Sample and reference fluorophores were excited at 700 nm and emission spectra integrated from 705 to 1000 nm and absorption measurements were collected at 700 nm. Data were collected in a quartz cuvette with a 1 cm pathlength. Absorbance maxima for each sample were kept at or below 0.2 absorbance units to avoid inner filter effects. Solvents used were spectroscopic grade ethanol and HPLC grade acetonitrile, HPLC grade chloroform, and HPLC grade water. For the water solution, Cy7MX was first dissolved first in MeCN and diluted at least 200 fold. Synthesis of Compounds for AP Site Detection
Further characterization was conducted for Cy7MX (Table 2), Cy7MX, because it was chosen for extensive investigation in biological studies. The absorption and emission spectra were collected in polar protic (water and ethanol), polar aprotic (acetonitrile), and relatively nonpolar (chloroform) solvents. […] The extinction coefficient and the fluorescence quantum yields for Cy7MX compared favorably to other heptamethine cyanine dyes.

Turning to `CCCN1/C(=C/C=C2\CCCC(/C=C/C3=[N+](CCC)c4ccccc4C3(C)C)=C2Oc2ccc(CC(=O)NCCCON)cc2)C(C)(C)c2ccccc21` [Cy7MX, 2-((E)-2-((E)-2-(4-(2-((3-(aminooxy)propyl)amino)-2-oxoethyl)phenoxy)-3-((E)-2-(3,3-dimethyl-1-propylindolin-2-ylidene)ethylidene)cyclohex-1-en-1-yl)vinyl)-3,3-dimethyl-1-propyl-3H-indol-1-ium 2,2,2-trifluoroacetate], the “dose-response and overall efficacy in SSB assay” value with AP DNA is “acceptable dose-response and overall efficacy”. In data set [1] (CHCl3), this compound showed a Φ of 32.6%, a λabs of 770 nm and a λem of 791 nm. Further, in data set [1] (EtOH), the Φ worked out at 36.3%, the ε is 127,000 M^−1cm^−1, the λabs was 770 nm and the λem stood at 796 nm. For the same compound, in data set [1] (H2O), the Φ was 6.3%, the ε is 140,000 M^−1cm^−1, the λabs amounted to 767 nm and the λem stood at 790 nm. Besides, in data set [1] (MeCN), the Φ was determined as 45.9%, the ε is 154,000 M^−1cm^−1, the λabs was found to be 767 nm and the λem was 789 nm. Besides, in data set [1] (water, ethanol, acetonitrile, chloroform), the solvatochromism entry is listed as “No solvatochromism was observed”.

(Values after patent US10718028B2, “Fluorescent probes for abasic site detection” (CASE WESTERN RESERVE UIVERSITY, priority 2015, dated 2020).)
